Test results as given in US8013047B2, “Oligo- and poly-carbonates terminated with silicon containing groups as surface modifiers” (priority 2005, dated 2011).

Assays:
[1] = Contact angle of extrusion tapes, compounds as bulk material or additive (sessile drop, water); type: physicochemical; conditions: 5% Tinuvin 1577 in 95% Makrolon 3108 FBL, extrusion tape
Protocol: Appropriate amounts of each compound of the formula I are dried in a vacuum oven for eight hours at 120° C. They are extruded in a twin-screw extruder (MiniLab extruder from Thermo Electron Corporation) equipped with a flat die. In this way, tapes are produced with a width of 5 mm and a thickness of around 0.5 mm. The processing temperature is around 280° C. All produced tapes have a transparent visual appearance. The contact angle of the produced tapes are measured with a Dataphysics OCA 30 contact angle device, using the sessile drop method and water as measuring liquid.

[2] = Contact angle of polycarbonate extrusion sheets (sessile drop, water); type: physicochemical; conditions: 5% Tinuvin 1577 alone in polycarbonate extrusion sheet
Protocol: (§1) A polycarbonate powder [Makrolon 3108 FBL (RTM) from Bayer] is dried in a vacuum oven for eight hours at 120° C. Appropriate amounts of each compound of the formula I is added to the dried polycarbonate powder to obtain formulations containing up to 10% by weight of the compound of the formula I. The formulations are mixed in a Grindo Mix GM 200 and compounded to pellets in a twin-screw extruder (Haake DS16-L/D25 from Thermo Electron Corporation) and further extruded to sheets with a width of 110 mm and thickness of 0.2 mm using a single-screw extruder equipped with a flat die (Collin CR-136/350). The processing temperature is around 280° C. All produced sheets have a transparent visual appearance.
The surface properties were evaluated by measuring the contact angle of the polycarbonate sheets described in Example 16 with a Dataphysics OCA 30 contact angle device, using the sessile drop method and water as measuring liquid.

[3] = tested on: Staphylococcus aureus ATCC 6538; test: Adhesion of microbes onto polycarbonate extrusion sheets (microtiterplate immunological assay); type: cell-based; conditions: 5% Tinuvin 1577 alone in polycarbonate sheet; residual adhesion relative to control = 100%; 60 min incubation
Protocol: as §1
In order to measure the reduced adhesion of microbes onto polymer surfaces the following testing procedure is applied:
The test system is microtiterplate based and is conducted according to the method described in Nature Medicine Vol. 6, No. 8, 1053-1056. Samples equipped with active compounds and untreated control samples are prepared to obtain a same sample size of max. 7×4 mm. […] The microbial cells adhering to the pieces are detected in an immunological assay using specific antibodies against the test strain, which are then detected […]. […]

## CCCCCCOc1ccc(-c2nc(-c3ccccc3)nc(-c3ccccc3)n2)c(O)c1 [Tinuvin 1577]
[1]
  Contact angle (°): 86 °
[2]
  Contact angle (°): 86 °
[3]
  Adhesion of Staphylococcus aureus ATCC 6538 on polycarbonate in %: 104%
